Experimental data as given in article PMC12075686, “Structural basis of phosphorylation-independent nuclear import of CIRBP by TNPO3” (Nature Communications, 2025).
No end group written: not given here.

Legend:
TNPO3 = assay: NMR binding studies with TNPO3 (1H-15N HSQC, 1H-13C HMQC, 1H 1D, STD); design: species or system human; settings: for line broadening of peptide 1H signals upon addition of TNPO3 (1H NMR): 50 µM peptide, stoichiometric amount of TNPO3
Method: All NMR studies for TNPO3 were carried out using the wild type protein. Protein samples for ^1H-^13C HMQC were prepared at a concentration of 100 μM and equilibrated in a buffer containing 50 mM Tris–HCl, pH 6.7, 150 mM NaCl, 2 mM TCEP and 10% D2O. Spectral acquisitions for TNPO3 free and in complex with CIRBP^RSY and SRSF1^RS, respectively were performed at 298 K on a 700 MHz Bruker Avance III NMR spectrometer equipped with a TCI triple-resonance cryoprobe. The pulse program was sfhmqcf2gpph and the spectra were recorded with 32 scans, interscan delay of 1 s, 160 points in F1, 1024 points in F2, 5283.879 Hz spectral width in F1, and 11,160.714 Hz spectral width in F2. Spectra were processed using Topspin 4.1.3.
Spectral acquisitions for TNPO3 free and in complex with mCIRBP^RSY, pCIRBP^RSY, and pSRSF1^RS, respectively, were performed at 298 K on a 600 MHz Bruker Avance Neo NMR spectrometer equipped with a TXI 600S3 probehead. The pulse program was hmqcgpphwg and the spectra were recorded with 64 scans, interscan delay of 1 s, 200 points in F1, 1024 points in F2, 4545.455 Hz spectral width in F1, and 7812.500 Hz spectral width in F2. Spectra were processed using Topspin 4.3.0.
For ^1H-^15N HSQC spectra, protein samples were equilibrated in a buffer containing 50 mM Tris–HCl, pH 6.7, 150 mM NaCl, 2 mM TCEP, 0.04% NaN3, and 10% D2O (with additional 20 mM MgCl2 for CIRBP phosphorylation kinetics). Data were recorded at 298 K on the 600 MHz Bruker Avance Neo NMR spectrometer equipped with a TXI 600S3 probehead. The pulse program was hsqcetfpf3gpsi and was recorded with 8-16 scans, interscan delay of 1 s, 128 points in F1, 1024 points in F2, 1949.318 Hz spectral width in F1, and 9615.385 Hz spectral width in F2. Spectra were processed using Topspin 4.3.0.

TNPO3 C511A = target: T1, TNPO3 C511A (Homo sapiens, UniProt Q9Y5L0, C511A); assay: ITC, ligand titrated into TNPO3 C511A; format: binding; settings: for TNPO3 binding Kd, outcome in words: TNPO3 C511A, two replicates
T1 construct: full-length (FL) WT human TNPO3 were generated by synthesizing codon-optimized DNA fragments; His6 (N, cleaved yes); protein A (N, cleaved yes); made in house; host or cells: Escherichia coli BL21-(DE3) Star
T1 sequence (Q9Y5L0 1-923 C511A): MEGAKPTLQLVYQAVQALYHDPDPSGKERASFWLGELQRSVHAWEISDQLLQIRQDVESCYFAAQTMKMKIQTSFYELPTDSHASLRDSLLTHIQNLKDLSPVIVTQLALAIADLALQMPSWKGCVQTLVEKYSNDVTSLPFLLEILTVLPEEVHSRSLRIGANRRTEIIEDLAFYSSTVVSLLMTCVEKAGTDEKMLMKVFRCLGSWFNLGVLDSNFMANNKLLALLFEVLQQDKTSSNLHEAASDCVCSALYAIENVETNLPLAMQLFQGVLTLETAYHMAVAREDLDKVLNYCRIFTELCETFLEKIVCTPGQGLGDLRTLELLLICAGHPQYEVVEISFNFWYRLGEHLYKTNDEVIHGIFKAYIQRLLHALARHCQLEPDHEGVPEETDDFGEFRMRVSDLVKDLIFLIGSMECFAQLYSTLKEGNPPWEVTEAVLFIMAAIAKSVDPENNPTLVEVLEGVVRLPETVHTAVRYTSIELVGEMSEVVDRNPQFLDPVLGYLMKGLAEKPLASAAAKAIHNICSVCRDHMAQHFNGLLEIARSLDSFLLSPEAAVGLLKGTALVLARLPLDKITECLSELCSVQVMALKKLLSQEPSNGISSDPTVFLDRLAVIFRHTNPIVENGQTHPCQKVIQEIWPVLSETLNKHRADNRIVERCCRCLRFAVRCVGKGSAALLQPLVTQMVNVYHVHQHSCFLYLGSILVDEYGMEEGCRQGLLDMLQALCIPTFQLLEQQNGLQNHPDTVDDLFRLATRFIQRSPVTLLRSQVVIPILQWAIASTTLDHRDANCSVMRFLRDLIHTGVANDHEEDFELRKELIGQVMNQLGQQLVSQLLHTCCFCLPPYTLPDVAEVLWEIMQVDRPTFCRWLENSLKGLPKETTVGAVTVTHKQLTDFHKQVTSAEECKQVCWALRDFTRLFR
Method: ITC has been performed by a Malvern Microcal VP-ITC at 25 °C for all binding studies. Samples have been dissolved in Tris buffer containing 50 mM Tris–HCl, 150 mM NaCl, 2 mM TCEP, and 0.04% NaN3 at pH 7.5. Binding studies of CIRBP^RSY and SRSF1^RS were performed with TNPO3 WT, and studies of CIRBP (157–172) and its mutants/phosphorylations were performed with TNPO3 C511A, respectively. Injection has been carried out by a syringe containing ligand solution of 100 μM, which adds ligand step-wise into the cell containing 10 μM TNPO3 during 28 injections of 10 μL each. Data analysis, curve fitting, and calculation of Kd, ΔH, and ΔS have been carried out using Origin-based 7.0 software provided by the manufacturer. All replicated ITC data are shown in Supplementary Fig. 6 and Supplementary Table 1.

[1] = 100 µM ligand into 10 µM TNPO3 C511A, 25 °C, 50 mM Tris–HCl, 150 mM NaCl, 2 mM TCEP, 0.04% NaN3, pH 7.5, error = SD of the fit

## PSGGSYRDSYESYGNS [RBMX/RMXL1, synthetic peptide RBMX (276–291), CIRBP-like motif]
TNPO3
  line broadening of peptide 1H signals upon addition of TNPO3 (1H NMR): broadened
TNPO3; 100 µM RSY regions and 10 µM TNPO3 (peer review reply)
  change of peptide 1H 1D NMR signals with sub-stoichiometric TNPO3: slight decrease of peptide signal intensity

## SRDRRFRGRYRSPYSG [RBM39]
TNPO3
  line broadening of peptide 1H signals upon addition of TNPO3 (1H NMR): broadened

## GGSYRDSpYDSYATHNE [CIRBP (157-172) Y164pY, synthetic CIRBP (157-172) peptide with phosphorylated Y164]
TNPO3 C511A; [1]
  Kd / affinity of binding to TNPO3 C511A (ITC), as given in Table 1: decreased binding beyond being detectable or fittable
TNPO3 C511A
  TNPO3 binding Kd, outcome in words: No binding

## YYDYEIERFWRGGQYENFRV [ZCH18]
TNPO3
  line broadening of peptide 1H signals upon addition of TNPO3 (1H NMR): broadened

## GGSYRDSADSYATHNE [CIRBP (157-172) Y164A, synthetic CIRBP (157-172) peptide with point mutation Y164A]
TNPO3 C511A; [1]
  Kd / affinity of binding to TNPO3 C511A (ITC), as given in Table 1: No binding
TNPO3 C511A
  TNPO3 binding Kd, outcome in words: No binding

## GGSYRDSYDSAATHNE [CIRBP (157-172) Y167A, synthetic CIRBP (157-172) peptide with point mutation Y167A]
TNPO3 C511A; [1]
  Kd / affinity of binding to TNPO3 C511A (ITC), as given in Table 1: Low affinity
TNPO3 C511A
  TNPO3 binding Kd, outcome in words: Low affinity

## GGSYRDSYDpSYATHNE [CIRBP (157-172) S166pS, synthetic CIRBP (157-172) peptide with phosphorylated S166]
TNPO3 C511A; [1]
  Kd / affinity of binding to TNPO3 C511A (ITC), as given in Table 1: decreased binding beyond being detectable or fittable
TNPO3 C511A
  TNPO3 binding Kd, outcome in words: No binding

## GGSYADSYDSYATHNE [CIRBP (157-172) R161A, synthetic CIRBP (157-172) peptide with point mutation R161A]
TNPO3 C511A; [1]
  Kd / affinity of binding to TNPO3 C511A (ITC), as given in Table 1: No binding
TNPO3 C511A
  TNPO3 binding Kd, outcome in words: No binding

## SQVYRCGFQPFNQHLLPW [P5CS]
TNPO3
  line broadening of peptide 1H signals upon addition of TNPO3 (1H NMR): broadened

## GGSYRDSYDSpYATHNE [CIRBP (157-172) Y167pY, synthetic CIRBP (157-172) peptide with phosphorylated Y167]
TNPO3 C511A
  TNPO3 binding Kd, outcome in words: Low affinity

## GGSYRDSYDSYATHNE [CIRBP (157-172) WT]
TNPO3 C511A; 100 µM ligand into 10 µM TNPO3 C511A, 25 °C, 50 mM Tris–HCl, 150 mM NaCl, 2 mM TCEP, 0.04% NaN3, pH 7.5, error = SD of the fit, read-out: Kd / affinity of binding to TNPO3 C511A (ITC), as given in Table 1
  Kd: 5.78 ± 1.63 µM
